# Patent publication US12466840B2, “Small molecule inhibitors of KRAS proteins” (Merck Sharp & Dohme LLC, priority 2023, dated 2025)
# Like-named read-outs stand apart in the source and are kept apart here.
# Assays:
# [1] = molecular target: KRAS G12C (Homo sapiens (Human), UniProt P01116, C118S/C51S/C80L/G12C); assay: SOS-catalyzed nucleotide exchange assay (GNE), KRAS G12C; type: biochemical; conditions: TR-FRET, 60 min preincubation; protein with C51S/C80L/C118S
# Excerpt: (§1) Procedure for SOS-Catalyzed Nucleotide Exchange Assay for KRAS-WT, G12C/D/V/A/R/S, G13D, Q61H, HRAS-WT, and NRAS-WT
# (§2) Recombinant KRAS-G12C protein used in this assay has an additional triple mutation (C51S/C80L/C118S). Whereas KRAS-WT, G12D/V/A/S/R, G13D, Q61H, HRAS and NRAS are in context of their WT protein sequence background. Specifically, the SOS-catalyzed nucleotide exchange assay utilizes a preformed TR-FRET complex containing a specific biotinylated RAS protein (KRAS-WT, G12C/V/D/A/S/R, G13D, Q61H, HRAS-WT, NRAS-WT; described above) with Bodipy-GDP, and Terbium-streptavidin. Compounds are preincubated with this complex for 60 minutes. Subsequently, recombinant human SOS protein and unlabeled GTP are added to initiate the exchange reaction. Small molecule inhibitors stabilize the Bodipy-GDP complex whereas the untreated protein rapidly exchanges Bodipy-GDP for unlabeled GTP resulting in reduced TR-FRET signal.
# (§3) To assemble the preformed TR-FRET complexes, each biotinylated RAS protein is diluted to 2 μM in an EDTA Buffer (20 mM HEPES pH 7.5, 50 mM sodium chloride, 10 mM EDTA, and 0.01% Tween) and incubated at room temperature for one hour. This mixture is then further diluted to 90 nM in an Assay Buffer (20 mM HEPES pH 7.5, 150 mM sodium chloride, 10 mM magnesium chloride, and 0.005% Tween) containing 15 nM of Terbium-Streptavidin (Invitrogen, catalog #PV3577) and 900 nM of Bodipy-GDP (Invitrogen, catalog #G22360) and incubated at room temperature for six hours. It should be noted that this preformed TR-FRET complex for each of the RAS protein were made ahead of time, aliquoted and stored at −80° C. until the day of the experiment.
# (§4) Each test compound (10 mM stock in DMSO) is diluted in DMSO to make a final-10-point, 3-fold dilution and is acoustically dispensed into a 384-well assay plate (Corning, catalog #3820) using an Echo 550 (Labcyte). Each well of the assay plate receives 3 μL of a specific 3×RAS preformed TR-FRET complex and 3 μL of Assay Buffer and is incubated at room temperature for 60 minutes (preincubation time). Each well then receives 3 μL of 3× recombinant human SOS protein and GTP (Sigma, G8877) in Assay Buffer and is incubated at room temperature for 30 minutes (G13D), 60 minutes (KRAS WT/G12C/D, H/NRAS) or 90 minutes for G12A/R/S/V and Q61H. The final reaction in each well of 9 μL consists of 3 mM GTP, specific Ras and SOS proteins in the following concentrations: KRAS-G12C/SOS=3 nM/40 nM, KRAS-WT and G12D/SOS=1 nM/40 nM, KRAS-G12V/SOS=1.25 nM/160 nM, KRAS-G12A/S/SOS=1 nM/160 nM, KRAS-G12R/SOS=1 nM/320 nM, KRAS-Q61H/SOS=1 nM/320 nM, KRAS-G13D/SOS=1.25 nM/[…], HRAS-WT and NRAS-WT=1.25 nM/40 nM.
# (§5) The time-resolved fluorescence resonance energy transfer (TR-FRET) signal is measured on an Envision (PerkinElmer) plate reader: Excitation filter=340 nm; emission1=495 nm; emission2=520 nm; dichroic mirror=D400/D505; delay time=[…]. The signal of each well is determined as the ratio of the emission at 520 nm to that at 495 nm. Percent effect of each well is determined after normalization to control wells containing DMSO (no effect) or a saturating concentration of inhibitor (max effect). The apparent effect as a function of compound concentration is fit to a four-parameter logistic equation.
# [2] = test system: SW620 cells (homozygous KRAS-G12V); assay: Cellular phospho-ERK assay, SW620 cells; type: cell-based; conditions: p-ERK vs. total ERK, read-out: SW620 pERK IC50
# Experimental: Procedure for Cellular Phospho-ERK Assay in KRAS Wild Type and Mutant (G12D, G12V) Cell Lines
# MKN-1 cells (JCRB JCRB0252) containing amplified wild-type KRAS, were cultured in growth medium that contains RPMI 1640-GlutaMAX™-I (ThermoFisher Scientific 61870) containing 10% heat inactivated fetal bovine serum (ThermoFisher Scientific 10091148), 1 mM sodium pyruvate and 10 mM HEPES. AsPC-1 cells (ATCC® CRL-1682™), containing homozygous KRAS-G12D activating mutation, were cultured in T150 flask in growth medium (RPMI medium 1640-GlutaMAX™-I (ThermoFisher Scientific 61870) containing 10% fetal bovine serum (ThermoFisher Scientific 10091148)). SW620 cells (ATCC® CRL-227™) containing homozygous KRAS-G12V activating mutation, were cultured in growth medium that contains RPMI 1640-GlutaMAX™-I (ThermoFisher Scientific 61870) containing 10% heat inactivated fetal bovine serum (ThermoFisher Scientific 10091148).
# Cells for the assay were harvested in growth medium after TrypLE (ThermoFisher scientific 12604021) digestion and were seeded in a 384-well collagen coated cell culture plate (Corning 356702) at a density of 10,000-15,000 cells/[…]/well, and incubated at 37° C., 5% CO2 overnight. The compound (with 10 mM stock concentration) dose-response titrations were prepared [30 μM final ERK detection assay concentration and 1:3 dilutions, 10-point dose response] and appropriate amounts (270 nL) of test compounds were dispensed in a 384-well intermediate plate using an Echo 550 liquid handler. 30 μL/well of RPMI medium 1640-GlutaMAX™-I was added to the intermediate plate and the contents of the intermediate plate (10 μL/well) were then transferred to the 384-well collagen coated cell culture plate, which was incubated at 37° C., 5% CO2 for 2 h. After removal of medium from the collagen coated cell culture plate, cells were lysed in lysis buffer from Alpha SureFire® Ultra™ Multiplex p-ERK and total ERK assay kit (PerkinElmer MPSU-PTERK) containing Halt™ Protease and Phosphatase inhibitor cocktail (ThermoFisher Scientific 78446) at room temperature with constant shaking at 300 rpm for 30 minutes. The cell lysates were then transferred to an OptiPlate-384 plate (PerkinElmer 6005620), and the phosphorylation of ERK (p-ERK) and total ERK levels were detected by Alpha SureFire® Ultra™ Multiplex p-EEK kit and total ERK assay kit (PerkinElmer MPSU-PTERK) following the manufacturer's protocol. Assay plates were read on a EnVision Multimode Plate Reader (PerkinElmer), and the ratio of p-ERK vs. total ERK in each well was used as the final readout. Dose response curves were analyzed using a 4-parameter logistic model to calculate IC50 values using Spotfire software.
# [3] = molecular target: KRAS WT (Homo sapiens (Human), UniProt P01116); assay: SOS-catalyzed nucleotide exchange assay (GNE), KRAS WT; type: biochemical; conditions: TR-FRET, 60 min preincubation
# Excerpt: as §1, §2, §3, §4, §5
# Sequence of KRAS WT (P01116 other isoform, or with tags, fused parts or gaps): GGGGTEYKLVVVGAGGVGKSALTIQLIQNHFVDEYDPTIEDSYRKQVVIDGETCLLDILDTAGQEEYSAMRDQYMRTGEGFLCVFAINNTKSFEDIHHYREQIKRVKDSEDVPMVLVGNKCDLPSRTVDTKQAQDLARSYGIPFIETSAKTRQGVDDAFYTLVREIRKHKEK
# Sequence of KRAS G12C (P01116 other isoform, or with tags, fused parts or gaps, stated change not applied): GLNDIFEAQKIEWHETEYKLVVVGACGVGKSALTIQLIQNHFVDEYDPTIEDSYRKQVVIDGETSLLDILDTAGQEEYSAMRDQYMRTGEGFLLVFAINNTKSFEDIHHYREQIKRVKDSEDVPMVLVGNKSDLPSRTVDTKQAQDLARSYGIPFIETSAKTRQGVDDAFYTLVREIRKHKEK
IC50 [3],"IC50 ([2]; Homo sapiens, SW-620, 2 h)",SMILES,IC50 [1],IC50 ([2]; 2 h)
2.5 nM,3.9 nM,"Fc1c(-c2c(C3CC3)c(Cl)cc3[nH]ncc23)nc2c3c(nc(OC[C@@]45CCCN4C[C@H](F)C5)nc13)N1CCCOC[C@H]1CO2 [Ex-3, (8aS)-5-(6-chloro-5-cyclopropyl-1H-indazol-4-yl)-4-fluoro-2-(((2R,7aS)-2-fluorotetrahydro-1H-pyrrolizin-7a(5H)-yl)methoxy)-8a,9,12,13-tetrahydro-8H,11H-7,10-dioxa-1,3,6,13a-tetraazanaphtho[1,8-ab]heptalene]",,
< 0.69 nM,< 1.5 nM,"CCc1c(F)ccc2cc3[nH]ncc3c(-c3nc4c5c(nc(OC[C@@]67CCCN6C/C(=C\F)C7)nc5c3F)N3CCCOC[C@H]3CO4)c12 [Ex-4, (8aS)-5-(5-ethyl-6-fluoro-1H-benzo[f]indazol-4-yl)-4-fluoro-2-(((S,Z)-2-(fluoromethylene)tetrahydro-1H-pyrrolizin-7a(5H)-yl)methoxy)-8a,9,12,13-tetrahydro-8H,11H-7,10-dioxa-1,3,6,13a-tetraazanaphtho[1,8-ab]heptalene]",2.9 nM,
< 0.69 nM,1.3 nM,"F/C=C1\CN2CCC[C@@]2(COc2nc3c4c(nc(-c5c(C6(F)CC6)c(Cl)cc6[nH]ncc56)c(F)c4n2)OC[C@@H]2COCCCN32)C1 [Ex-5, (8aS)-5-(6-chloro-5-(1-fluorocyclopropyl)-1H-indazol-4-yl)-4-fluoro-2-(((S,Z)-2-(fluoromethylene)tetrahydro-1H-pyrrolizin-7a(5H)-yl)methoxy)-8a,9,12,13-tetrahydro-8H,11H-7,10-dioxa-1,3,6,13a-tetraazanaphtho[1,8-ab]heptalene]",3.3 nM,
1.6 nM,3.4 nM,"CCc1c(F)ccc2cc3[nH]nc(C)c3c(-c3nc4c5c(nc(OC[C@@]67CCCN6C[C@H](F)C7)nc5c3F)N3CCCOC[C@H]3CO4)c12 [Ex-6, (8aS)-5-(5-ethyl-6-fluoro-3-methyl-1H-benzo[f]indazol-4-yl)-4-fluoro-2-(((2R,7aS)-2-fluorotetrahydro-1H-pyrrolizin-7a(5H)-yl)methoxy)-8a,9,12,13-tetrahydro-8H,11H-7,10-dioxa-1,3,6,13a-tetraazanaphtho[1,8-ab]heptalene]",6.5 nM,

SMILES,IC50 [3],"IC50 ([2]; Homo sapiens, SW-620, 2 h)",IC50 [1],IC50 ([2]; 2 h)
"F/C=C1/CN2CCC[C@@]2(COc2nc3c4c(nc(-c5c(C6CC6)c(Cl)cc6[nH]ncc56)c(F)c4n2)OC[C@@H]2COCCCN32)C1 [Ex-1, (8aS)-5-(6-chloro-5-cyclopropyl-1H-indazol-4-yl)-4-fluoro-2-(((S,Z)-2-(fluoromethylene)tetrahydro-1H-pyrrolizin-7a(5H)-yl)methoxy)-8a,9,12,13-tetrahydro-8H,11H-7,10-dioxa-1,3,6,13a-tetraazanaphtho[1,8-ab]heptalene]",0.87 nM,,6.9 nM,2.6 nM
"CCc1c(F)ccc2cc3[nH]ncc3c(-c3nc4c5c(nc(OC[C@@]67CCCN6C[C@H](F)C7)nc5c3F)N3CCCOC[C@H]3CO4)c12 [Ex-2, (8aS)-5-(5-ethyl-6-fluoro-1H-benzo[f]indazol-4-yl)-4-fluoro-2-(((2R,7aS)-2-fluorotetrahydro-1H-pyrrolizin-7a(5H)-yl)methoxy)-8a,9,12,13-tetrahydro-8H,11H-7,10-dioxa-1,3,6,13a-tetraazanaphtho[1,8-ab]heptalene]",1.1 nM,,3.2 nM,2.4 nM
"CCc1c(F)ccc2cc3[nH]nc(C)c3c(-c3nc4c5c(nc(OC[C@@]67CCCN6C/C(=C\F)C7)nc5c3F)N3CCCOC[C@H]3CO4)c12 [Ex-7, (8aS)-5-(5-ethyl-6-fluoro-3-methyl-1H-benzo[f]indazol-4-yl)-4-fluoro-2-(((S,Z)-2-(fluoromethylene)tetrahydro-1H-pyrrolizin-7a(5H)-yl)methoxy)-8a,9,12,13-tetrahydro-8H,11H-7,10-dioxa-1,3,6,13a-tetraazanaphtho[1,8-ab]heptalene]",1.4 nM,,11 nM,2.5 nM
